The values that follow are results of earlier work, collected in patent US20040033271A1, “Methods for contemporaneous administration of levamisole and 5-fluorouracil” (priority 2003, published 2004).

Like-named read-outs stand apart in the source and are kept apart here.

The test system of series [1] is bladder cancer. The settings on record: rats.
In series [2] the test system is phosphatases.
The conditions of series [3]: levamisole in humans.
Test in series [4]: not given
This is another data set of the same source.

Test in series [5]: not given
The source holds these as a separate data set.

For series [6] the following is noted: guinea pigs.
Series [7] deals with A375 melanoma cell line. The settings on record: most sensitive cell line.
Series [8] concerns Human colorectal cancer xenografts. The settings on record: levamisole alone.
For series [9], the system named is breast cancer. The settings on record: post-surgical levamisole, large study.
Series [10] relates to Dukes' C. colon cancer. Conditions: levamisole alone.
Series [11] concerns colorectal cancer. The settings on record: added to leucovorin/5-FU regimen after surgical resection.
Series [12] deals with breast cancer. Conditions: superimposed on CAF; no same-day 5-FU and levamisole.

Turning to `c1ccc([C@@H]2CN3CCSC3=N2)cc1` [Dexamisole], the “potentiation of BCNU compared with levamisole” value in series [1] is “less active”.
For the compound `Brc1ccc([C@H]2CN3CCSC3=N2)cc1` [4-bromo analogue of levamisole, 4-bromolevamisole], the phosphatase inhibition entry in series [2] is “capable of inhibiting phosphatases”.
Regarding `c1ccc([C@H]2CN3CCSC3=N2)cc1` [levamisole], the serum half-life entry in [3] was “about four”. In addition, the “time to peak plasma concentration” value (after oral levamisole administration) was 2 h. In addition, the “difference between the highest and lowest AUC (area under curve)” value (twenty cancer patients, oral levamisole 50 mg t.i.d.) was “seven”. For the same compound, the “adverse effect of increased oral dose” value in series [4] (five-fold increase in the recommended oral levamisole dose) is “severe nausea and vomiting”. Further, the maximum tolerable dose in [4] (oral t.i.d. for five days with daily 5-FU, repeated every five weeks) is 100 mg/m^2. Also, the “time after administration at which cardiac effects are seen” value in [5] (bolus IV, stated for rats and guinea pigs together) is ≤ 60 s. Moreover, the “IV dose at which cardiotoxicity was observed (as low as)” value in series [5] (rats, IV) was 2 mg/kg. The “IV dose at which ECG irregularities were seen” value in series [6] is on record as 10 mg/kg. For the same compound, the “levamisole concentration affecting colony formation” value in series [7] (in presence of 5-FU) was 30 µg/mL; in series [7] (molar value in brackets), 0.125 µM. In addition, the effect on xenografts entry in series [8] was “unaffected”. In series [9], the recurrence result is “increase in recurrence”. In addition, the clinical benefit result in series [10] is on record as “no benefit”. For the same compound, the “effect of addition of levamisole” value in series [11] was “no additive effect”. In series [12], the “effect of added levamisole” value was “modest effects over untreated historical controls”.
On to `Oc1ccc([C@H]2CN3CCSC3=N2)cc1` [4-hydroxy analogue of levamisole, 4-hydroxylevamisole], for which the phosphatase inhibition result in series [2] is “capable of inhibiting phosphatases”.
